Laboratory results published in patent publication US10688099B2, “Methods for modulating the amount of RNA transcripts” (PTC Therapeutics, Inc., priority 2013, dated 2020).

Test system: RNA isoforms in PNN 1-46 SMA type I patient-derived fibroblasts
Test: RNA Abundance Modulation (RNA isoform abundance, iFPM, HiSeq RNA sequencing)
Format: cell-based, human
Settings: for RNA abundance modulation (effect on isoform fold increase): 24 hrs, PNN 1-46 fibroblasts
Description: Cells from a cell line of interest are cultured in conditions sufficient to yield the number of cells capable of generating enough RNA for subsequent sequencing steps. Cells from the tested cell line are contacted with a compound described herein.
To culture said cells, they are seeded, at appropriate concentrations in a volume of media in a cell culture container and incubated for 4, 5, 6, 7, 8, 9, 10, or more hours. A concentrated solution of compound in a vehicle (e.g., DMSO) is then added in sufficient volume to result in the intended final concentration of the compound, for example 100 nM, 500 nM, 1 μM, 5 μM, 10 μM, 15 μM, 20 μM, or more. The cells may also be treated with vehicle alone, as a control. A number of replicates of each concentration or control may be made (e.g., 2 replicates). The cells are then incubated at a constant temperature appropriate for cell culture of the particular cell line (e.g., 37° C.) for 6, 12, 18, 24, 48, or more hours. After incubation, the growth medium is removed and the cells are washed with the appropriate buffer (e.g., PBS). Cells are then removed from adherence to the cell culture container by treatment with a solution containing trypsin, and the trypsin subsequently quenched with the appropriate volume of buffer (e.g., DMEM-FBS). The cells are then pelleted with gentle centrifugation (e.g., ≤90×g centrifugal force) and resuspended in a buffer to lyse the cells for extraction of RNA. The cell lysates may then be frozen (e.g., at −80° C.) or, alternately, may immediately be used in a procedure to purify the RNA (e.g. by use of the RNEASY PLUS® minikit). The RNA from cell lysates is eluted in the appropriate volume of buffer (e.g., RNEASE-FREE H2O®). The resulting purified RNA may then be sequenced (e.g., using RNASeq) or analyzed using a human exon array (e.g., by GENECHIP® human exon array) to determine changes in the RNA levels in those cells treated with compound compared to those cells treated only with DMSO. The purified RNA may also be quantified by other methods known in the art.
Using the RNA data obtained from sequencing, exon array, or other methods, a statistical analysis can reveal changes in the RNA levels of compound-treated compared with control. For example, t-test p-values may be calculated for the data obtained through sequencing and exon array methods in order to compare compound-treated cells to those treated with the DMSO control. […] Analysis of the sequencing and exon array data may then also yield predictions about the cause of the aberrant amount of an RNA transcript in the cells (e.g., perturbation of RNA splicing, RNA transcription, or RNA stability). These predictions may be further confirmed by methods known in the art. For example, RT-PCR and RT-qPCR may be used to confirm the change in amount of RNA transcripts for one or more particular transcripts of interest.
Following the methods described above in Example 1, PNN 1-46 SMA type I patient-derived fibroblasts were treated with 300 nM or 3 μM Compounds 774 and 808 in 0.5% DMSO.
700,000 cells were seeded in 10 mL of medium (DMEM plus 10% FBS) in a T-75 flask. Cells were allowed to attach for at least 4 hrs, after which 50 μL of a 200× compound solution (100% DMSO) was added to each well, and the plate was incubated at 37° C. for 24 hrs.
At the end of the incubation period, the supernatant was removed and the cells where washed with PBS. TrypLE (Invitrogen) express solution was added (e.g. 1.5 mL per one T75 flask). The flasks were incubated for 3 to 5 min at 37° C. The trypsin was then quenched, e.g., by adding 10 mL DMEM-FBS.
Next, the cells were pelleted using gentle centrifugation without exceeding 90×g centrifugal force. The supernatant was removed and the cell pellet was re-suspended in 600 μL RLT buffer (the RLT buffer was supplemented with beta-mercaptoethanol according to the RNeasy protocol manual) by pipetting up and down until the pellet was completely dissolved […]

SMILES: CCc1nc(C)cn2nc(-c3cc(=O)n4cc(C5CCN(C)CC5)cc(C)c4n3)cc12 [Compound 774]
- RNA abundance modulation (effect on isoform fold increase) (0.3 μM): modulates RNA abundance
- RNA abundance modulation (effect on isoform fold increase) (3 μM): modulates RNA abundance
- FC (x + 1) (TACC1 NM_006283, 3 μM): 1.1645
- L2FC (x + 1) (TACC1 NM_006283, 3 μM): 0.220
- L2abs (Cpd-DMSO) (TACC1 NM_006283, 3 μM): 8.47
- abs (Cpd-DMSO) (TACC1 NM_006283, 3 μM): 354 iFPM
- amp FC (x + 1) (TACC1 NM_006283, 3 μM): 1.16
- ave Cpd (TACC1 NM_006283, 3 μM): 2506 iFPM
- FC (x + 1) (TAF2 NM_003184, 3 μM): 0.4533
- L2FC (x + 1) (TAF2 NM_003184, 3 μM): −1.141
- L2abs (Cpd-DMSO) (TAF2 NM_003184, 3 μM): 9.75
- abs (Cpd-DMSO) (TAF2 NM_003184, 3 μM): 862 iFPM
- amp FC (x + 1) (TAF2 NM_003184, 3 μM): 2.21
- ave Cpd (TAF2 NM_003184, 3 μM): 714 iFPM
- FC (x + 1) (TANC2 AJ278120, 3 μM): 1.0181
- L2FC (x + 1) (TANC2 AJ278120, 3 μM): 0.026
- L2abs (Cpd-DMSO) (TANC2 AJ278120, 3 μM): 1.28
- abs (Cpd-DMSO) (TANC2 AJ278120, 3 μM): 2 iFPM
- amp FC (x + 1) (TANC2 AJ278120, 3 μM): 1.02
- ave Cpd (TANC2 AJ278120, 3 μM): 136 iFPM
- FC (x + 1) (TANC2 AK001077, 3 μM): 4.5130
- L2FC (x + 1) (TANC2 AK001077, 3 μM): 2.174
- L2abs (Cpd-DMSO) (TANC2 AK001077, 3 μM): 1.81
- abs (Cpd-DMSO) (TANC2 AK001077, 3 μM): 4 iFPM
- amp FC (x + 1) (TANC2 AK001077, 3 μM): 4.51
- ave Cpd (TANC2 AK001077, 3 μM): 4 iFPM
- FC (x + 1) (TANC2 AK021886, 3 μM): 0.4015
- L2FC (x + 1) (TANC2 AK021886, 3 μM): −1.317
- L2abs (Cpd-DMSO) (TANC2 AK021886, 3 μM): 2.40
- abs (Cpd-DMSO) (TANC2 AK021886, 3 μM): 5 iFPM
- amp FC (x + 1) (TANC2 AK021886, 3 μM): 2.49
- ave Cpd (TANC2 AK021886, 3 μM): 3 iFPM
- FC (x + 1) (TANC2 BC144357, 3 μM): 0.3363
- L2FC (x + 1) (TANC2 BC144357, 3 μM): −1.572
- L2abs (Cpd-DMSO) (TANC2 BC144357, 3 μM): 8.29
- abs (Cpd-DMSO) (TANC2 BC144357, 3 μM): 313 iFPM
- amp FC (x + 1) (TANC2 BC144357, 3 μM): 2.97
- ave Cpd (TANC2 BC144357, 3 μM): 158 iFPM
- FC (x + 1) (TANC2 NM_025185, 3 μM): 1.0124
- L2FC (x + 1) (TANC2 NM_025185, 3 μM): 0.018
- L2abs (Cpd-DMSO) (TANC2 NM_025185, 3 μM): 4.47
- abs (Cpd-DMSO) (TANC2 NM_025185, 3 μM): 22 iFPM
- amp FC (x + 1) (TANC2 NM_025185, 3 μM): 1.01
- ave Cpd (TANC2 NM_025185, 3 μM): 1812 iFPM
- FC (x + 1) (TARBP1 NM_005646, 3 μM): 0.1192
- L2FC (x + 1) (TARBP1 NM_005646, 3 μM): −3.068
- L2abs (Cpd-DMSO) (TARBP1 NM_005646, 3 μM): 8.52
- abs (Cpd-DMSO) (TARBP1 NM_005646, 3 μM): 367 iFPM
- amp FC (x + 1) (TARBP1 NM_005646, 3 μM): 8.39
- ave Cpd (TARBP1 NM_005646, 3 μM): 49 iFPM
- FC (x + 1) (TBC1D15 AK307922, 3 μM): 1.0252
- L2FC (x + 1) (TBC1D15 AK307922, 3 μM): 0.036
- L2abs (Cpd-DMSO) (TBC1D15 AK307922, 3 μM): 2.70
- abs (Cpd-DMSO) (TBC1D15 AK307922, 3 μM): 6 iFPM
- amp FC (x + 1) (TBC1D15 AK307922, 3 μM): 1.03
- ave Cpd (TBC1D15 AK307922, 3 μM): 263 iFPM
- FC (x + 1) (TBC1D15 NM_022771, 3 μM): 1.1954
- L2FC (x + 1) (TBC1D15 NM_022771, 3 μM): 0.257
- L2abs (Cpd-DMSO) (TBC1D15 NM_022771, 3 μM): 3.99
- abs (Cpd-DMSO) (TBC1D15 NM_022771, 3 μM): 16 iFPM
- amp FC (x + 1) (TBC1D15 NM_022771, 3 μM): 1.20
- ave Cpd (TBC1D15 NM_022771, 3 μM): 96 iFPM
- FC (x + 1) (TBC1D15 NM_001146213, 3 μM): 1.4119
- L2FC (x + 1) (TBC1D15 NM_001146213, 3 μM): 0.498
- L2abs (Cpd-DMSO) (TBC1D15 NM_001146213, 3 μM): 8.07
- abs (Cpd-DMSO) (TBC1D15 NM_001146213, 3 μM): 270 iFPM
- amp FC (x + 1) (TBC1D15 NM_001146213, 3 μM): 1.41
- ave Cpd (TBC1D15 NM_001146213, 3 μM): 923 iFPM
- FC (x + 1) (TBC1D15 NM_001146214, 3 μM): 1.0153
- L2FC (x + 1) (TBC1D15 NM_001146214, 3 μM): 0.022
- L2abs (Cpd-DMSO) (TBC1D15 NM_001146214, 3 μM): −0.65
- abs (Cpd-DMSO) (TBC1D15 NM_001146214, 3 μM): 1 iFPM
- amp FC (x + 1) (TBC1D15 NM_001146214, 3 μM): 1.02
- ave Cpd (TBC1D15 NM_001146214, 3 μM): 41 iFPM
- FC (x + 1) (TBC1D15 NR_027449, 3 μM): 0.1625
